Measured values: patent US9695155B2, “Herbicidal substituted pyrimidinyloxy benzene compounds” (E. I. DU PONT DE NEMOURS AND COMPANY, priority 2013, dated 2017)

How the values were obtained:
bermudagrass = assay: Test F preemergence; format: in vivo, Cynodon dactylon; conditions: 21 days, scale 0 to 100
Excerpt: (§1) Seeds of plant species selected from bermudagrass (Cynodon dactylon), surinam grass (Brachiaria decumbens), large (Lg) crabgrass (Digitaria sanguinalis), crabgrass, naked (naked crabgrass, Digitaria nuda), foxtail, green (green foxtail, Setaria viridis), johnsongrass (Sorghum halepense), kochia (Kochia scoparia), morningglory (pitted morningglory, Ipomoea lacunosa), nutsedge, purple (purple nutsedge, Cyperus rotundus), ragweed (common ragweed, Ambrosia elatior), mustard, black (black mustard, Brassica nigra), guineagrass (Panicum maximum), dallisgrass (Paspalum dilatatum), barnyardgrass (Echinochloa crus-galli), sandbur (southern sandbur, Cenchrus echinatus), sowthistle (common sowthistle, Sonchus oleraceous), Italian ryegrass (Lolium multiflorum), signalgrass (broadleaf signalgrass, Brachiaria platyphylla), dayflower (Virginia (VA) dayflower, Commelina virginica), bluegrass (annual bluegrass, Poa annua), quackgrass (Elytrigia repens), mallow (common mallow, Malva sylvestris), buckwheat, wild (wild buckwheat, Polygonum convolvulus), leafy spurge (Euphorbia esula), chickweed (common chickweed, Stellaria media), wild poinsettia (Euphorbia heterophylla), and pigweed (Amaranthus retroflexus) were planted into a blend of loam soil and sand and treated preemergence with test chemicals formulated in a non-phytotoxic solvent mixture which included a surfactant.
(§2) Treated plants and controls were maintained in a greenhouse for 21 days, after which time all species were compared to controls and visually evaluated. Plant response ratings, summarized in Table F, are based on a scale of 0 to 100 where 0 is no effect and 100 is complete control. A dash (-) response means no test result.

kochia = assay: Test F preemergence; format: in vivo, Kochia scoparia; conditions: 21 days, scale 0 to 100
Excerpt: as §1, §2

N#Cc1cccc(Oc2ncc(F)cn2)c1-n1cc(C(F)(F)F)cn1 [Compound 79, 3-[(5-fluoro-2-pyrimidinyl)oxy]-2-[4-(trifluoromethyl)-1H-pyrazol-1-yl]benzonitrile]
Plant response rating, Bermudagrass (bermudagrass; 16 g ai/ha): 98 | Plant response rating, Bermudagrass (bermudagrass; 31 g ai/ha): 100 | Plant response rating, Bermudagrass (bermudagrass; 62 g ai/ha): 100 | Plant response rating, Bermudagrass (bermudagrass; 125 g ai/ha): 100 | Plant response rating, Bermudagrass (bermudagrass; 250 g ai/ha): 100 | Plant response rating, Kochia (kochia; 16 g ai/ha): 100 | Plant response rating, Kochia (kochia; 31 g ai/ha): 100 | Plant response rating, Kochia (kochia; 62 g ai/ha): 100 | Plant response rating, Kochia (kochia; 125 g ai/ha): 100 | Plant response rating, Kochia (kochia; 250 g ai/ha): 100

N#Cc1cccc(Oc2ncc(Cl)cn2)c1-n1cc(OC(F)F)cn1 [Compound 97]
Plant response rating, Bermudagrass (bermudagrass; 16 g ai/ha): 80 | Plant response rating, Bermudagrass (bermudagrass; 31 g ai/ha): 95 | Plant response rating, Bermudagrass (bermudagrass; 62 g ai/ha): 100 | Plant response rating, Bermudagrass (bermudagrass; 125 g ai/ha): 100 | Plant response rating, Bermudagrass (bermudagrass; 250 g ai/ha): 100 | Plant response rating, Kochia (kochia; 16 g ai/ha): 100 | Plant response rating, Kochia (kochia; 31 g ai/ha): 100 | Plant response rating, Kochia (kochia; 62 g ai/ha): 100 | Plant response rating, Kochia (kochia; 125 g ai/ha): 100 | Plant response rating, Kochia (kochia; 250 g ai/ha): 100
